Test results: the NIST ThermoML archive (doi:10.1021/acs.jced.7b00354)
“And” between values parts separate entries of the source, which are not always exact repeats. Equal entries are not always repeated.

Conditions: Transpiration method

O=C1C=CC(=O)C=C1 [1,4-benzoquinone]
Crystal
Conditions | vapor or sublimation pressure
290.2 K | 0.01002 kPa
293.4 K | 0.01343 kPa
297.5 K | 0.02081 kPa
298.5 K | 0.02319 kPa
301.4 K | 0.03014 kPa
303.1 K | 0.03408 kPa
307.3 K | 0.05078 kPa
308.3 K | 0.0527 kPa
310.2 K | 0.06526 kPa
313.3 K | 0.07951 kPa
314.1 K | 0.08416 kPa
317.3 K | 0.1098 kPa
320.1 K | 0.1364 kPa
323 K | 0.1783 kPa
323.3 K | 0.1841 kPa
324.2 K | 0.1861 kPa
327.2 K | 0.2502 kPa and 0.2417 kPa
328.1 K | 0.2659 kPa
330.3 K | 0.3065 kPa
333.2 K | 0.3846 kPa and 0.3832 kPa
334.2 K | 0.4116 kPa
338.1 K | 0.5504 kPa
338.2 K | 0.5497 kPa and 0.5525 kPa

CC1=CC(=O)C=CC1=O [2,5-cyclohexadiene-1,4-dione, 2-methyl]
Conditions | vapor or sublimation pressure
282.2 K, Crystal | 0.00318 kPa
285.6 K, Crystal | 0.00523 kPa and 0.0051 kPa
286.8 K, Crystal | 0.00566 kPa
288.5 K, Crystal | 0.00664 kPa and 0.00678 kPa
290.8 K, Crystal | 0.0091 kPa
295.2 K, Crystal | 0.01426 kPa
300.4 K, Crystal | 0.02498 kPa
305.3 K, Crystal | 0.04235 kPa
310.2 K, Crystal | 0.06335 kPa
312.9 K, Crystal | 0.08525 kPa
315.2 K, Crystal | 0.1054 kPa
317.9 K, Crystal | 0.1305 kPa
320.1 K, Crystal | 0.1774 kPa
322 K, Crystal | 0.2004 kPa
325.1 K, Crystal | 0.2769 kPa
327.8 K, Crystal | 0.3444 kPa
330.1 K, Crystal | 0.4336 kPa
331.6 K, Crystal | 0.4466 kPa
332.1 K, Crystal | 0.5012 kPa
335.2 K, Crystal | 0.6342 kPa
336.7 K, Crystal | 0.7271 kPa
343.2 K, Liquid | 1.019 kPa
347.2 K, Liquid | 1.264 kPa
351.2 K, Liquid | 1.552 kPa
355.1 K, Liquid | 1.947 kPa
356.8 K, Liquid | 2.104 kPa
359.1 K, Liquid | 2.373 kPa
363.1 K, Liquid | 2.94 kPa
